From US10227331B2 (priority 2015, dated 2019)

Legend:
IMP-1 = IMP-1 (Serratia marcescens, UniProt P52699); assay: biochemical; type: biochemical; conditions: CCF2-FA substrate, 2 hours at 25° C; read-out: IMP-1 IC50
Method in brief: (§1)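 Two-hour, 25° C incubation of enzyme with inhibitor and CCF2-FA (7-hydroxycoumarin–cephalosporin–fluorescein). Fluorescence read-out; IC50 via 4-parameter fit.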

NDM-1 = NDM-1 (Klebsiella pneumoniae, UniProt C7C422); assay: biochemical; type: biochemical; conditions: CCF2-FA substrate, 2 hours at 25° C; read-out: NDM-1 IC50
Method in brief: as §1

VIM-1 = VIM-1 (Pseudomonas aeruginosa (strain ATCC 15692 / DSM 22644 / CIP 104116 / JCM 14847 / LMG 12228 / 1C / PRS 101 / PAO1), UniProt A0A0F7KYQ8); assay: biochemical; conditions: CCF2-FA substrate, 2 hours at 25° C
Method in brief: as §1

[1] = system: Escherichia coli expressing NDM-1 (CLB30005, CLB30016); type: cell-based; conditions: with imipenem 1 μg/ml, 95% inhibition of bacterial growth; for Escherichia coli MITC95: NDM-1 (CLB30016)
Method in brief: (§2)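 Colonies from overnight 35 °C blood-agar cultures were suspended in saline, diluted 1:100 into 1.1× CAMHB and exposed to test compound with or without imipenem at 1 μg/ml. After 22–24 h at 35 °C, absorbance was read to find the concentration restoring imipenem susceptibility.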

[2] = system: Klebsiella pneumoniae expressing VIM-1 (IHMA599644); type: cell-based; conditions: with imipenem 1 μg/ml, 95% inhibition of bacterial growth; for Klebsiella pneumoniae MITC95: VIM-1 (IHMA599644)
Method in brief: as §2

[3] = system: Serratia marcescens expressing IMP-1 (CL5741); type: cell-based; conditions: with imipenem 1 μg/ml, 95% inhibition of bacterial growth; for Serratia marcescens MITC95: IMP-1 (CL5741)
Method in brief: as §2

[4] = system: P. aeruginosa expressing IMP-1, efflux+ (MB9798); type: cell-based, Pseudomonas aeruginosa; conditions: for P. aeruginosa expressing IMP-1, efflux+ (MB9798) MITC95: imipenem at 2 μg/mL, in the presence of a class A, C, D serine β-lactamase inhibitor closely related to relebactam; for Efflux ratio: ratio MITC95 PA_9798/MITC95 PA_9799
Text: (§3) The strain background is Pseudomonas aeruginosa PAO1.

[5] = system: P. aeruginosa expressing IMP-1, efflux− (MB9799); assay: Efflux: concentration of MBL inhibitor which restores susceptibility to imipenem; type: cell-based, Pseudomonas aeruginosa; conditions: imipenem at 2 μg/mL, in the presence of a class A, C, D serine β-lactamase inhibitor closely related to relebactam
Text: as §3

Sequence of IMP-1 (P52699 whole entry, looked up, species assumed): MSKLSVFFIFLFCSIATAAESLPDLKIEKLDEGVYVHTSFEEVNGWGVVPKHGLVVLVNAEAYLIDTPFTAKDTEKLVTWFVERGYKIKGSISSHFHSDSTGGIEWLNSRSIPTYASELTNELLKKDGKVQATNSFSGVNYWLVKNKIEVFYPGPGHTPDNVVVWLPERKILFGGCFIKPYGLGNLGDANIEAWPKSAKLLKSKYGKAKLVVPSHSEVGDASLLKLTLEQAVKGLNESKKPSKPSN
Sequence of NDM-1 (C7C422 whole entry, looked up, species assumed): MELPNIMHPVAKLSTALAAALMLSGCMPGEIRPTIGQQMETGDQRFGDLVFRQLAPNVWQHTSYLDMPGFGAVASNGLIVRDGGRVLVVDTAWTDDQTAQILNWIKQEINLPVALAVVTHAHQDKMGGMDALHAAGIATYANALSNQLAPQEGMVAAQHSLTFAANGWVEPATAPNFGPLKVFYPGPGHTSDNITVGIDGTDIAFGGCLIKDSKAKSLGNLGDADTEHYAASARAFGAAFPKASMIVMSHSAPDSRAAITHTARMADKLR

SMILES	IC50 (IMP-1) [pM]	IC50 (NDM-1) [pM]	IC50 (VIM-1) [pM]	Escherichia coli expressing NDM-1 (CLB30016) MITC95 [1] [µM]	Klebsiella pneumoniae expressing VIM-1 (IHMA599644) MITC95 [2] [µM]	Serratia marcescens expressing IMP-1 (CL5741) MITC95 [3] [µM]	P. aeruginosa expressing IMP-1, efflux+ (MB9798) MITC95 [4] [µM]	Efflux ratio [4]	P. aeruginosa expressing IMP-1, efflux− (MB9799) MITC95 [5] [µM]	Escherichia coli MITC95 [1] [µM]	Klebsiella pneumoniae MITC95 [2] [µM]	Serratia marcescens MITC95 [3] [µM]
NCCS(=O)(=O)c1ccc(-c2cnc3[nH]ccc3c2)c(-c2nnn[nH]2)c1S(N)(=O)=O.O=C(O)C(F)(F)F [Example 149, 2-((4-(1H-pyrrolo[2,3-b]pyridin-5-yl)-2-sulfamoyl-3-(1H-tetrazol-5-yl)phenyl)sulfonyl)ethanaminium 2,2,2-trifluoroacetate]	856	534	185	1.563	3.125	3.125	6.25	8.00	0.7813	–	–	–
Nc1c(-c2ccc(S(=O)(=O)C3CNC3)c(S(N)(=O)=O)c2-c2nn[nH]n2)cccc1S(N)(=O)=O [Example 287, 2′-amino-4-(azetidin-3-ylsulfonyl)-2-(2H-tetrazol-5-yl)biphenyl-3,3′-disulfonamide]	2920	386	607	–	–	–	6.25	2.00	3.125	3.125	3.125	3.125
NC[C@@H](O)CS(=O)(=O)c1ccc(-c2cccc3sc(N)nc23)c(-c2nn[nH]n2)c1S(N)(=O)=O [Example 352, (R)-6-((3-amino-2-hydroxypropyl)sulfonyl)-3-(2-aminobenzo[d]thiazol-4-yl)-2-(2H-tetrazol-5-yl) benzenesulfonamide]	145	65.8	255	–	–	–	0.3906	–	0.7813	0.7813	1.563	0.7813
Nc1nc2c(-c3ccc(S(=O)(=O)C4CCNCC4)c(S(N)(=O)=O)c3-c3nn[nH]n3)cccc2[s+]1[O-] (centres unmarked) [Example 316, 3-(2-amino-1-oxidobenzo[d]thiazol-4-yl)-6-(piperidin-4-ylsulfonyl)-2-(2H-tetrazol-5-yl)benzenesulfonamide]	835	284	779	–	–	–	6.25	1.00	6.25	6.25	12.5	12.5
CS(=O)(=O)c1ccc([C@H]2CC[C@@H](N)CC2)c(-c2nnn[nH]2)c1S(N)(=O)=O [Example 209, 3-((1s,4s)-4-aminocyclohexyl)-6-(methylsulfonyl)-2-(1H-tetrazol-5-yl) benzenesulfonamide]	65300	16400	52100	3.125	25	6.25	50	16.00	3.125	–	–	–
Nc1nc2c(-c3ccc(S(=O)(=O)C4CNC4)c(S(N)(=O)=O)c3-c3nn[nH]n3)ccc(F)c2[nH]1 [Example 251, 3-(2-Amino-7-fluoro-1H-benzo[d]imidazol-4-yl)-6-(azetidin-3-ylsulfonyl)-2-(2H-tetrazol-5-yl)benzenesulfonamide]	748	72.7	251	–	–	–	1.563	2.00	0.7813	0.3906	1.563	1.563
NS(=O)(=O)c1c(S(=O)(=O)C2CCNCC2)ccc([C@H]2CC[C@@H](N)CC2)c1-c1nnn[nH]1 [Example 208, 3-((1s,4s)-4-aminocyclohexyl)-6-(piperidin-4-ylsulfonyl)-2-(1H-tetrazol-5-yl) benzenesulfonamide]	124000	20600	18600	1.563	6.25	3.125	6.25	2.00	3.125	–	–	–
Cn1ncc2cc(-c3ccc(S(=O)(=O)CCN)c(S(N)(=O)=O)c3-c3nnn[nH]3)ccc21.O=C(O)C(F)(F)F [Example 160, 2-((4-(1-methyl-1H-indazol-5-yl)-2-sulfamoyl-3-(1H-tetrazol-5-yl)phenyl)sulfonyl)ethanaminium 2,2,2-trifluoroacetate]	568	1020	375	1.563	6.25	3.125	12.5	8.00	1.563	–	–	–
NS(=O)(=O)c1c(S(=O)(=O)C2CCNCC2)ccc([C@H]2CC[C@H](N)CC2)c1-c1nnn[nH]1 [Example 207, 3-((1r,4r)-4-aminocyclohexyl)-6-(piperidin-4-ylsulfonyl)-2-(1H-tetrazol-5-yl) benzenesulfonamide]	24600	16000	710	2.344	3.125	3.125	3.125	2.00	1.563	–	–	–
Nc1nc2cccc(-c3ccc(S(=O)(=O)[C@H]4C[C@@H](N)C4)c(S(N)(=O)=O)c3-c3nn[nH]n3)c2[nH]1 [Example 176, 3-(2-amino-3H-benzo[d]imidazol-4-yl)-6-((1s, 3s)-3-aminocyclobutylsulfonyl)-2-(2H-tetrazol-5-yl)benzenesulfonamide]	1090	250	831	0.7813	1.563	0.7813	0.7813	1.00	0.7813	–	–	–
NS(=O)(=O)c1c(S(=O)(=O)C2CNC2)ccc(-c2cnc3ccoc3c2)c1-c1nnn[nH]1.O=C(O)C(F)(F)F [Example 101, 3-((4-(furo[3,2-b]pyridin-6-yl)-2-sulfamoyl-3-(1H-tetrazol-5-yl)phenyl)sulfonyl)azetidin-1-ium 2,2,2-trifluoroacetate]	1480	905	399	3.125	6.25	3.125	12.5	8.00	1.563	–	–	–
